Source: ChEMBL document CHEMBL4177563, “The medicinal chemistry of Chikungunya virus” (Bioorg Med Chem, 2017)
Converted amounts (≈) assume the structure as drawn.

Tests used:
Chikungunya virus [1] = test: Antiviral activity against Chikungunya virus infected in BHK21 cells assessed as reduction in plague formation at 1 uM after 24 hrs relative to control; format: functional; details: BHK-21, 24 h
Aedes aegypti [2] = test: Larvicidal activity against Aedes aegypti Paea assessed as mortality at 14 ug/ml after 24 hrs relative to control; format: functional
Aedes aegypti [3] = test: Larvicidal activity against Aedes aegypti Paea assessed as mortality at 7 ug/ml after 24 hrs relative to control; format: functional
Aedes aegypti [4] = test: Larvicidal activity against Aedes aegypti Paea assessed as mortality at 28 ug/ml after 24 hrs relative to control; format: functional
Aedes aegypti [5] = test: Induction of oviposition deterrent activity in Aedes aegypti assessed as effective repellency at 15 ug/ml after 24 hrs by stereomicroscopic analysis relative to control; format: functional
Aedes aegypti [6] = test: Induction of oviposition deterrent activity in Aedes aegypti assessed as effective repellency at 75 ug/ml after 24 hrs by stereomicroscopic analysis relative to control; format: functional
Aedes aegypti [7] = test: Induction of oviposition deterrent activity in Aedes aegypti assessed as effective repellency at 60 ug/ml after 24 hrs by stereomicroscopic analysis relative to control; format: functional
Aedes aegypti [8] = test: Larvicidal activity against Aedes aegypti Paea assessed as mortality after 24 hrs; format: functional, organism-based
Aedes aegypti [9] = test: Induction of oviposition deterrent activity in Aedes aegypti assessed as effective repellency at 45 ug/ml after 24 hrs by stereomicroscopic analysis relative to control; format: functional
Aedes aegypti [10] = test: Induction of oviposition deterrent activity in Aedes aegypti assessed as effective repellency at 30 ug/ml after 24 hrs by stereomicroscopic analysis relative to control; format: functional
Aedes aegypti [11] = test: Larvicidal activity against Aedes aegypti Paea assessed as mortality at 21 ug/ml after 24 hrs relative to control; format: functional
Aedes aegypti [12] = test: Larvicidal activity against Aedes aegypti Paea assessed as mortality at 35 ug/ml after 24 hrs relative to control; format: functional
Chikungunya virus [13] = test: Antiviral activity against Chikungunya virus LR2006 OPY1 infected in human MRC5 cells after 48 hrs by indirect immunofluorescence analysis; format: functional, organism-based; details: LR2006 OPY1, MRC5, 48 h
Chikungunya virus [14] = test: Antiviral activity against Chikungunya virus 899 infected in African green monkey Vero A cells assessed as inhibition of virus-induced cytopathogenic effect measured on day 5 post infection by MTS/PMS based microscopic analysis; format: functional, organism-based; details: Chikungunya virus, 899, Vero, 120 h
Chikungunya virus [15] = test: Antiviral activity against Chikungunya virus 899 infected in African green monkey Vero A cells assessed as reduction in viral infectious progeny by end-point titration assay; format: functional, organism-based; details: Chikungunya virus, 899, Vero
[16] = Cytotoxicity against African green monkey Vero A cells assessed as reduction in cell viability measured on day 5 post infection by MTS/PMS based microscopic analysis; details: chlorocebus sabaeus
Chikungunya virus [17] = test: Antiviral activity against Chikungunya virus 899 infected in African green monkey Vero A cells by real-time qRT-PCR analysis; format: functional, organism-based; details: Chikungunya virus, 899, Vero
Chikungunya virus [18] = test: Antiviral activity against Chikungunya virus isolate DRDE-06 infected in African green monkey Vero cells by neutral red dye uptake assay; format: functional, organism-based; details: isolate DRDE-06, Vero
[19] = Selectivity index, ratio of CC50 for African green monkey Vero cells to IC50 for Chikungunya virus DRDE-06; format: toxicity; details: read-out: Ratio CC50/IC50
[20] = Cytotoxicity against African green monkey Vero cells by neutral red dye uptake assay; format: cell-based; details: chlorocebus sabaeus
[21] = Selectivity index, ratio of CC50 for African green monkey Vero cells to EC50 for Chikungunya virus; format: toxicity; details: read-out: Ratio CC50/EC50
Chikungunya virus [22] = test: Antiviral activity against Chikungunya virus infected in African green monkey Vero cells; format: functional, organism-based
[23] = Selectivity index, ratio of CC50 for BHK-21 cells to EC50 for Chikungunya virus 0810bTw; format: toxicity; details: hamster, read-out: Ratio CC50/EC50
Chikungunya virus [24] = test: Antiviral activity against Chikungunya virus infected in human U2OS cells by RT-qPCR analysis; format: functional, organism-based
Chikungunya virus [25] = test: Antiviral activity against Chikungunya virus infected in BHK-21 cells by RT-qPCR analysis; format: functional, organism-based
Chikungunya virus [26] = test: Antiviral activity against Chikungunya virus 0810bTw infected in BHK-21 cells by RT-qPCR analysis; format: functional, organism-based
[27] = Cytotoxicity against BHK21 cells assessed as reduction in cell viability after 16 hrs by CCK-8 assay; format: cell-based, Mesocricetus auratus; details: hamster, BHK-21 cells
Chikungunya virus [28] = test: Antiviral activity against Chikungunya virus 0611aTw infected in BHK-21 cells by RT-qPCR analysis; format: functional, organism-based
[29] = Selectivity index, ratio of CC50 for BHK-21 cells to EC50 for Chikungunya virus 0611aTw; format: toxicity; details: hamster, read-out: Ratio CC50/EC50
[30] = Cytotoxicity against human U2OS cells assessed as reduction in cell viability after 16 hrs by CCK-8 assay; format: cell-based
[31] = Selectivity index, ratio of CC50 for BHK-21 cells to EC50 for Chikungunya virus; format: toxicity; details: hamster, read-out: Ratio CC50/EC50
[32] = Selectivity index, ratio of CC50 for human U2OS cells to EC50 for Chikungunya virus; format: toxicity; details: read-out: Ratio CC50/EC50
Chikungunya virus [33] = test: Antiviral activity against Chikungunya virus 899 infected in African green monkey Vero cells assessed as inhibition of virus-induced cytopathogenic effect measured on day 5 post infection by MTS/PMS based microscopic analysis; format: functional, organism-based; details: Chikungunya virus, 899, Vero, 120 h
Vero = test: Cytotoxicity against African green monkey Vero cells assessed as reduction in cell viability measured on day 5 post dose by MTS/PMS based microscopic analysis; details: chlorocebus sabaeus
[34] = Selectivity index, ratio of CC50 for African green monkey Vero cells to IC50 for Chikungunya virus nsP2 protease; format: toxicity; details: read-out: Ratio CC50/IC50
Chikungunya virus [35] = test: Antiviral activity against Chikungunya virus 899 infected in African green monkey Vero-A cells assessed as inhibition of viral-induced cytopathic effect measured on day 7 post infection by MTS/PMS assay; format: functional, organism-based; details: Chikungunya virus, 899, 168 h

**Q.** With `C[C@H]1O[C@@H](O[C@H]2CC[C@@]3(C)[C@H](CC[C@@H]4[C@@H]3C[C@@H](O)[C@]3(C)[C@@H](C5=CC(=O)OC5)CC[C@]43O)C2)C[C@H](O)[C@@H]1O[C@H]1C[C@H](O)[C@H](O[C@H]2C[C@H](O)[C@H](O[C@@H]3O[C@H](CO)[C@@H](O)[C@H](O)[C@H]3O)[C@@H](C)O2)[C@@H](C)O1` [DESLANOSIDE] as the compound, how does the inhibition at 1 µM (Chikungunya virus [1]) read?
**A.** 38.7%

**Q.** For `CC(C)=CCCC(C)[C@@]1(O)CC=C(C)CC1` (stereo partly drawn), which Activity (Aedes aegypti [2]) is on record?
**A.** 42.6%

**Q.** What about the Activity (Aedes aegypti [3]) of the same compound?
**A.** 24.8%

**Q.** What about the Activity (Aedes aegypti [4]) of the same compound?
**A.** 84.7%

**Q.** What about the Activity (Aedes aegypti [5]) of the same compound?
**A.** 72.3%

**Q.** And the Activity (Aedes aegypti [6])?
**A.** 88.99%

**Q.** And the Activity (Aedes aegypti [7])?
**A.** 85.45%

**Q.** And the IC50 (Aedes aegypti [8])?
**A.** 15.8 µg/mL (≈ 71.2 µM)

**Q.** And the IC90 (Aedes aegypti [8])?
**A.** 30.3 µg/mL (≈ 136 µM)

**Q.** What about the Activity (Aedes aegypti [9]) of the same compound?
**A.** 81.13%

**Q.** What about the Activity (Aedes aegypti [10]) of the same compound?
**A.** 77.03%

**Q.** What about the Activity (Aedes aegypti [11]) of the same compound?
**A.** 63.2%

**Q.** And the Activity (Aedes aegypti [12])?
**A.** 98.1%

**Q.** With `CCOC(=O)c1c(C[S+]([O-])c2ccccc2)n(C)c2cc(Br)c(O)c(CN(C)C)c12` (stereo not drawn) as the compound, how does the IC50 (Chikungunya virus [13]) read?
**A.** 54.5 µM

**Q.** Which EC50 (Chikungunya virus [14]) does the source give for `CCCCCCCC(=O)O[C@H]1/C(=C/C(=O)OC)C[C@H]2C[C@H](CC(=O)OC)OC(=O)CCOc3ccccc3C(=O)OCC(C)(C)[C@]1(O)O2` here?
**A.** 8 µM

**Q.** What about the EC50 (Chikungunya virus [15]) of the same compound?
**A.** 4.5 µM

**Q.** What about the CC50 at 5 days [16] of the same compound?
**A.** > 50 µM

**Q.** What about the EC50 (Chikungunya virus [17]) of the same compound?
**A.** 4.6 µM

**Q.** Which results are given for `CCCCCCCC(=O)O[C@H]1/C(=C/C(=O)OC)C[C@H]2C[C@H](CC(=O)OC)OC(=O)CCOc3ccc(-c4c(OC)cccc4OC)cc3C(=O)OCC(C)(C)[C@]1(O)O2`?
**A.** EC50 (Chikungunya virus [14]): 4 µM; EC50 (Chikungunya virus [15]): 2 µM; CC50 at 5 days [16]: > 50 µM; EC50 (Chikungunya virus [17]): 2.1 µM

**Q.** For `COc1c(C)c2c(c(O)c1C/C=C(\C)CCC(=O)O)C(=O)OC2` [MYCOPHENOLIC ACID], which IC50 (Chikungunya virus [18]) is on record?
**A.** 0.1 µM

**Q.** What about the selectivity ratio [19] of the same compound?
**A.** 300

**Q.** What about the CC50 [20] of the same compound?
**A.** 30 µM

**Q.** What does the source list for `CC(=O)C(C)/C(C)=C/C(=O)O[C@@H]1[C@H](C)C[C@H]2O[C@]1(O)[C@@H](O)[C@H]1CC[C@H](O1)C(C)(C)/C=C/[C@H](C)C2=O` (stereo partly drawn)?
**A.** selectivity ratio [21]: 8.8; EC50 (Chikungunya virus [22]): 7 µM

**Q.** Which selectivity ratio [23] does the source give for `CC(=O)Oc1ccccc1C(=O)Nc1ncc([N+](=O)[O-])s1` [NITAZOXANIDE] here?
**A.** 5.05

**Q.** And the EC50 (Chikungunya virus [24])?
**A.** 3.01 µM

**Q.** And the EC50 (Chikungunya virus [25])?
**A.** 2.96 µM

**Q.** What about the EC50 (Chikungunya virus [26]) of the same compound?
**A.** 4.95 µM

**Q.** What about the CC50 at 16 h [27] of the same compound?
**A.** 25 µM

**Q.** What about the EC50 (Chikungunya virus [28]) of the same compound?
**A.** 1.96 µM

**Q.** And the selectivity ratio [29]?
**A.** 12.8

**Q.** What about the CC50 at 16 h [30] of the same compound?
**A.** 25 µM

**Q.** And the selectivity ratio [31]?
**A.** 8.45

**Q.** What about the selectivity ratio [32] of the same compound?
**A.** 8.31

**Q.** With `Cn1c2ccccc2c2c3c(c4c5ccccc5n(CCC#N)c4c21)CNC3=O` [GO-6976] as the compound, how does the EC50 (Chikungunya virus [33]) read?
**A.** > 6 µM

**Q.** And the CC50 (Vero)?
**A.** 6 µM

**Q.** For `CCOc1ccc(/C=N/NC(=O)/C=C/Cc2ccc(C(C)(C)C)cc2)cc1OCC`, which selectivity ratio [34] is on record?
**A.** 32

**Q.** What does the source list for `C/C(=C\C(=O)O[C@@H]1[C@H](C)C[C@H]2O[C@]1(O)[C@@H](O)[C@H]1CC[C@H](O1)C(C)(C)/C=C/[C@H](C)C2=O)C(C)O` (stereo partly drawn)?
**A.** selectivity ratio [21]: 3.2; EC50 (Chikungunya virus [22]): 34 µM

**Q.** For `NC(=O)c1nccnc1O`, which EC50 (Chikungunya virus [35]) is on record?
**A.** 7 µM
